Results from patent EP4640207A1, “AQUEOUS COMPOSITION AND EXTERNAL PREPARATION FOR SKIN” (Resonac Corporation, priority 2022, dated 2024).
Where two headings read alike, the source gives them in different places.

How the values were obtained:
TRPV4 gene = experiment: cells; type: cell-based, human; settings: for fold induction at 10 µM: Homo sapiens, NHEK, light or radiation study, read-out: Expression level of TRPV4 gene (relative value); for Expression level of TRPV4 gene (relative value): nhek cells, 10 µM
Procedure: • (Confirmation of activity of aqueous composition containing δ-TPG and HD: expression of TRPV4 gene) • Normal human epidermal keratinocytes (NHEK, manufactured by KURABO INDUSTRIES LTD.) were seeded in a plastic petri dish at a seeding density of 10,000 cells/cm^2, and cultured for 24 hours in a normal human epidermal keratinocyte serum-free culture medium (manufactured by KURABO INDUSTRIES LTD.).
8.94 g of water, 1.0 g of HD, and 0.06 g of δ-TPG were mixed and stirred to obtain an aqueous composition. The above-described aqueous composition was added to a culture solution in which the above-described NHEK cells had been cultured for 24 hours, such that the final concentration of δ-TPG was 10 µM.
After adding the δ-TPG, the above-described culture solution was further cultured for 48 hours. Thereafter, the culture solution was irradiated with UVB at 60 mJ/cm^2 using a UVB irradiation device of UVP, LLC. Thereafter, a fresh normal human epidermal keratinocyte growth medium was added to the above-described culture solution, and the culture was further carried out for 24 hours. In this manner, evaluation cells were obtained.
Total RNA was extracted from the evaluation cells obtained above, and cDNA was synthesized. Subsequently, quantitative real-time PCR was carried out using the above-described cDNA as a template, and the expression level of the TRPV4 gene in the NHEK cells was quantified. The expression level of glyceraldehyde 3-phosphate dehydrogenase (GAPDH) was quantified as an internal standard gene. […] The expression level of the TRPV4 gene was standardized with reference to the expression level of the GAPDH gene in the NHEK cells. As a primer for amplifying the GAPDH gene, a primer GAPDH (ID: HA067812) manufactured by Takara Bio Inc. was used. As a primer for amplifying the TRPV4 gene, a primer TRPV4 (ID: HA186338) manufactured by Takara Bio Inc. was used.
The same operation as described above was carried out using, instead of δ-TPG, D-α-tocopheryl glucoside (hereinafter, may be abbreviated as "α-TPG"), tocopherol acetate (FUJIFILM Wako Pure Chemical Corporation; hereinafter, may be abbreviated as "TPA"), δ-tocopherol (Sigma-Aldrich Co., LLC; hereinafter, may be abbreviated as "δ-TP"), or α-tocopherol (SEIKO-EPSON CORPORATION; hereinafter, may be abbreviated as "α-TP"), thereby obtaining evaluation cells. The expression level of the TRPV4 gene was measured for these evaluation cells by the same operation as described above.
The expression level of the TRPV4 gene was determined as a relative value when the expression level of the TRPV4 gene in reference cells was set to 1. The reference cells were prepared by culturing the NHEK cells without adding a test compound to the cell culture solution and without irradiating the cells with UVB. HD was added to the cell culture solution of the reference cells so that the HD concentration in the cell culture solution was the same as that in the culture solution when δ-TPG was added and cultured. The culture conditions for the NHEK cells were the same as those when δ-TPG was added, except that δ-TPG was not added and UVB irradiation was not carried out.
Comparative cells were prepared by culturing the NHEK cells by not adding the test compound to the cell culture solution and irradiating the cells with UVB. […] The expression level of the TRPV4 gene in the comparative cells was determined by the same method as described above.

claudin 1 (CLDN1) gene = experiment: Expression of TJ-related gene CLDN1 in UVB-irradiated NHEK cells, quantitative real-time PCR; type: cell-based, human; settings: for fold induction at 10 µM: Homo sapiens, light or radiation study, read-out: Expression level of gene (relative value) CLDN1 gene
Procedure: (§1) • (Confirmation of activity of aqueous composition with δ-TPG and HD: effect of promoting expression of TJ-related gene) • Normal human epidermal keratinocytes (NHEK, manufactured by KURABO INDUSTRIES LTD.) were subjected to the same operation as in Experimental Example 2 to obtain evaluation cells.
(§2) Total RNA was extracted from the evaluation cells thus obtained, and cDNA was synthesized. Subsequently, quantitative real-time PCR was carried out using the above-described cDNA as a template, and the expression levels of the claudin 1 (CLDN1) gene and occludin (OCL) gene in the NHEK cells were quantified. In addition, the expression level of GAPDH was quantified as an internal standard gene. The expression levels of the CLDN1 gene and OCL gene were standardized with reference to the expression level of the GAPDH gene in the NHEK cells. As a primer for amplifying the GAPDH gene, a primer GAPDH (ID: HA067812) manufactured by Takara Bio Inc. was used. As a primer for amplifying the CLDN1 gene, a primer CLDN1 (ID: HA103348) manufactured by Takara Bio Inc. was used. As a primer for amplifying the OCL gene, a primer OCL (ID: HA036753) manufactured by Takara Bio Inc. was used.
(§3) The same operation as described above was performed using, instead of δ-TPG, α-TPG, TPA, δ-TP, or α-TP to obtain evaluation cells. The expression levels of the CLDN1 gene and OCL gene were measured for these evaluation cells by the same operation as described above.
(§4) The expression level of each gene was determined as a relative value when the expression level of each gene in reference cells was set to 1. The reference cells were prepared by the same operation as the reference cells in Experimental Example 2.
(§5) The expression levels of the CLDN1 gene and OCL gene in comparative cells were determined by the same method as described above. The comparative cells were prepared by the same operation as the comparative cells in Experimental Example 2.

occludin (OCL) gene = experiment: Expression of TJ-related gene OCL in UVB-irradiated NHEK cells, quantitative real-time PCR; type: cell-based, human; settings: for fold induction at 10 µM: Homo sapiens, light or radiation study, read-out: Expression level of gene (relative value) OCL gene
Procedure: as §1, §2, §3, §4, §5

[1] = tested on: skin model (model "EP1-200"); experiment: TJ-forming ability evaluation test: transepidermal water loss (TEWL) of skin model; type: cell-based; settings: cultured 24 hours
Procedure: A skin model (model "EP1-200", manufactured by KURABO INDUSTRIES LTD.) was pre-cultured for 1 hour under the conditions of 37°C and 5% CO2. Subsequently, δ-TPG dissolved in a 0.5% by mass HD aqueous solution at a concentration of 0.2% by mass was added to the surface of the skin model, and the skin model was further cultured for 24 hours. Subsequently, δ-TPG was removed, the sample was washed three times with a phosphate buffer solution, and the transepidermal water loss (TEWL) was measured. A cyclone water vaporizer (manufactured by ASCH JAPAN Co.,Ltd.) was used for measuring the TEWL.
TEWL was measured by performing the same operation as described above using TPA instead of δ-TPG.
For comparison, a 0.5% by mass HD aqueous solution not containing δ-TPG instead of δ-TPG dissolved in a 0.5% by mass HD aqueous solution was used, and the same operation as described above was performed to measure the TEWL.
The same operation as described above was performed using δ-TP dissolved in 1% by mass of HD at a concentration of 0.2% by mass, instead of δ-TPG dissolved in 0.5% by mass of HD, and the TEWL was measured.
It was confirmed that TEWL was suppressed in the group in which δ-TPG was added. […]

[2] = Confirmation of solubility of tocopheryl glucoside (visual observation of vials); settings: aqueous composition not containing HD
Procedure: The solubility of the D-δ-tocopheryl glucoside (hereinafter, may be abbreviated as "δ-TPG") was examined.
9.9 g of each of the mixtures was placed in individual vials, 0.01 g of solid δ-TPG was added to each vial, and the mixture was stirred at room temperature. After stirring for 1 hour, the state of each vial was observed.

[3] = NHEK cells, final concentration 10 µM, UVB 60 mJ/cm^2 performed, relative to reference cells (HD, no UVB) = 1, standardized to GAPDH
[4] = 0.2% by mass in 0.5% by mass HD aqueous solution on skin model surface

| Expression level of TRPV4 gene (relative value) (TRPV4 gene) | Molecule | fold induction at 10 µM (TRPV4 gene) | fold induction at 10 µM (claudin 1 (CLDN1) gene; [3]) | fold induction at 10 µM (occludin (OCL) gene; [3]) | TEWL [1, 4] | further results |
| --- | --- | --- | --- | --- | --- | --- |
| – | CC(=O)Oc1c(C)c(C)c2c(c1C)CCC(C)(CCCC(C)CCCC(C)CCCC(C)C)O2 (stereo not shown) [TPA/HD, tocopherol acetate] | 0.29 | 0.77 | 1.12 | 12.4 ± 0.8 g/(h·m^2) | – |
| – | Cc1c(C)c2c(c(C)c1O)CCC(C)(CCCC(C)CCCC(C)CCCC(C)C)O2 (stereo not drawn) [α-TP/HD, α-tocopherol] | 0.43 | – | – | – | fold induction at 10 µM (claudin 1 (CLDN1) gene; NHEK): 1; fold induction at 10 µM (occludin (OCL) gene; NHEK): 2.48 |
| – | Cc1cc(OC2OC(CO)C(O)C(O)C2O)cc2c1OC(C)(CCCC(C)CCCC(C)CCCC(C)C)CC2 [δ-TPG, D-δ-tocopheryl glucoside] | 0.83 | 1.28 | 3.45 | 7.9 ± 1.7 g/(h·m^2) | – |
| 0.77 | D-α-tocopheryl glucoside [α-TPG/HD] | – | – | – | – | Expression level of gene (relative value) CLDN1 gene (claudin 1 (CLDN1) gene; [3]): 1.24; Expression level of gene (relative value) OCL gene (occludin (OCL) gene; [3]): 3.24 |
| – | tocopheryl glucoside | – | – | – | – | solubility of tocopheryl glucoside [2]: not sufficiently dissolved |
| 0.54 | δ-tocopherol [δ-TP/HD] | – | – | – | – | Expression level of gene (relative value) CLDN1 gene (claudin 1 (CLDN1) gene; nhek cells, 10 µM): 1.00; Expression level of gene (relative value) OCL gene (occludin (OCL) gene; nhek cells, 10 µM): 1.91; TEWL ([1]; 0.2% by mass in 1% by mass of HD on skin model surface): 8.2 ± 1.2 g/(h·m^2) |
